Assay results published in US11001563B2, “SSAO inhibitor” (SHANDONG DANHONG PHARMACEUTICAL CO., LTD., priority 2017, dated 2021).

Legend:
[1] = target: VAP-1/SSAO (Homo sapiens (Human), UniProt Q16853); assay: VAP-1 cell activity assay (HUVEC or CHO cells transfected with VAP-1/pCDNA (3.1) plasmid, Amplex Red); type: cell-based; details: HUVEC or CHO cells transfected with VAP-1 plasmid; read-out: VAP-1/SSAO Cellular Inhibitory Activity IC50
Protocol: The inhibition of the sample on VAP-1 cell activity was measured by using an Amplex® Red Monoamine Oxidase kit (Invitrogen #A12214).
The cultured HUVEC or CHO cells were plated into a 6-well plate at a density of 0.8 M/well, placed in a 37° C., 5% CO2 incubator for incubation for 24 hours, and then the cells was transferred with a Lipo2000 reagent and a VAP-1/pCDNA (3.1) plasmid, and liquid was changed for the cells after 5 hours (Lipo2000 was toxic to the cells); after 24 hours, the cells were digested and plated into 384-well plates with a density of 25 μl, 10000 cells/well, and liquid was replaced with medium without FBS for the cells after 6-7 hours, and the cell plates were incubated overnight at 37° C. in a 5% CO2 incubator.
1) Dilution of the compound: serial dilution in 4× gradient was carried out with 100% DMSO, 10 points were diluted, the starting concentration of the to-be-tested compound was 0.5 mM (final concentration was 1 μM); 100 nl of compound solution was transferred to a 384-well cell assay plate with ECHO. Negative control wells: 100 nl of DMSO; background control wells: 100 nl DMSO+25 μL medium.
2) The reaction was carried out in the dark at room temperature for 30 min.
3) Preparation of Amplex Red reagent+HRP+benzylamine substrate working solution: Amplex Red reagent+HRP+benzylamine substrate working solution (200 μM Amplex Red reagent+1 U/mL HRP+1 mM benzylamine): 45 μl of 20 mM Amplex Red reagent mother solution, 22.5 μl of 200 U/ml horseradish peroxidase (HRP) mother solution and 45 ul of 100 mM benzylamine were tanken and added to 4.3875 ml of 1× reaction buffer.
4) After 30 min, 25 μl of the substrate working solution was added to a 384-well plate, and a final concentration was 100 μM Amplex Red reagent+0.5 U/mL HRP+0.5 mM benzylamine, respectively.
5) The reaction was carried out in the dark at room temperature for 60 minutes, and the fluorescence value was measured by Envision: the excitation wave was 535 nm, and the emission wave was 590 nm.
6) Inhibition rate calculation formula: % inhibition rate=(1−(test hole minus background−positive control well minus background)/(negative control well minus background-positive control well minus background))*100
7) The data were analyzed with Prism. The IC50 of the sample against VAP-1 cells was calculated.

[2] = tested on: CCl4-induced chronic liver fibrosis; assay: Oral CCl4-induced chronic liver fibrosis male C57BL/6 model; type: in vivo, C57BL/6 mice; details: oral daily for 28 days, in words
Protocol: The therapeutic effect of compounds on an oral CCl4-induced chronic liver fibrosis male C57BL/6 model was tested. Male C57BL/6 mice, 7-8 weeks old; Experimental method: Male C57BL/6 mice were orally administered from the day CCl4 was put for modeling, and administered daily. Continuous administration was conducted for 28 days. The animals were fasted for at least 6 hours on the next day after the last administration. Animal weight was measured during euthanasia and all animals were euthanized under the guidance of the KCl Animal Euthanasia SOP. Non-anticoagulant venous blood of mice was collected from the ocular venous plexus. The whole blood was allowed to stand at room temperature for 30 minutes, and centrifuged at 5000 rpm for 5 minutes, and the serum was separated and placed in a 1.5 ml EP tube and stored at -80° C. After the whole body of the animal was perfused with hypothermic saline, the liver was taken and subjected to tissue gross image acquisition. The left lobe of the liver was divided into 4 equal parts and put into 4 tissue cryotubes for liquid nitrogen freezing, and then transferred to -80 OC for storage. The rest of the liver tissue was fixed in 10% neutral formalin fixative. […] HE staining was subjected to double-blind score by two pathological readers, and the area of hepatic fibrosis was analyzed for sirius-red stained sections by digital pathology.

[3] = target: hERG potassium channel (Homo sapiens (Human), UniProt Q12809); assay: Inhibition test of hERG potassium ion channel (automatic patch clamp, CHO-hERG cells); type: cell-based
Protocol: The effect of the to-be-tested compound on the potassium ion channel of hERG was detected by a fully automatic patch clamp method.
The cells stably expressing hERG potassium channel used in the experiment were obtained from CHO-hERE of Aviva Biosciences, and CHO-hERG was cultured in 5% CO2 at 37° C.
CHO-hERG cells prepared for the experiment were cultured for at least two days, and the cell density reached 75% or more. Prior to the start of the experiment, cells were digested with TrypLE and then resuspended in extracellular fluid to collect the cells.
The to-be-tested compound and the positive control Amitriptyline were dissolved in DMSO to a certain concentration of the stock solution, and then diluted according to different gradients, and finally added to the extracellular fluid in a certain ratio, and diluted to a concentration to be measured. Visual inspection was performed to see if there was any precipitation before the start of the experiment. Finally, the concentration of DMSO in the to-be-tested solution and the positive control Amitriptyline should not exceed 0.3%.
The clamping potential was kept at −80 mv, first a voltage stimulation of −50 mv was given for 80 ms to record the cell leakage current value, and then was depolarized to +20 mv to be maintained for 4800 ms, the channel of hERG was open, and then repolarized to −50 mv to be maintained 5000 ms, hERG tail current was led out and recorded, and finally, the voltage was returned to the clamping potential of −80 mv to be maintained for 3100 ms. The above voltage stimulation was repeated once every 15000 ms.
hERG QPatch^HTX experiment was performed at room temperature. A whole cell protocol, a voltage stimulation protocol and a compound detection protocol were established on the software of QPatch Assay Software 5.2 (Sophion Bioscience).
First, 30 repeated set voltage stimulations were performed, which was the baseline area for subsequent analysis, followed by the addition of 5 μl of extracellular fluid, repeated for three times. The concentration of each compound added in sequence was repeated three times in a volume of 5 μl. The cells were incubated for at least 5 min at each test concentration. During the entire recording process, the indicators needed to meet the data analysis acceptance criteria. If the standard was not met, the cells would not be included in the analysis scope, and the compounds would be retested. The above recording process was automatically operated by Qpatch analysis software. […]
In each complete current record, based on the percentage of peak current in the negative control, the percent inhibition of the concentration of each compound can be calculated. […]

Chain of hERG potassium channel (Q12809 whole entry): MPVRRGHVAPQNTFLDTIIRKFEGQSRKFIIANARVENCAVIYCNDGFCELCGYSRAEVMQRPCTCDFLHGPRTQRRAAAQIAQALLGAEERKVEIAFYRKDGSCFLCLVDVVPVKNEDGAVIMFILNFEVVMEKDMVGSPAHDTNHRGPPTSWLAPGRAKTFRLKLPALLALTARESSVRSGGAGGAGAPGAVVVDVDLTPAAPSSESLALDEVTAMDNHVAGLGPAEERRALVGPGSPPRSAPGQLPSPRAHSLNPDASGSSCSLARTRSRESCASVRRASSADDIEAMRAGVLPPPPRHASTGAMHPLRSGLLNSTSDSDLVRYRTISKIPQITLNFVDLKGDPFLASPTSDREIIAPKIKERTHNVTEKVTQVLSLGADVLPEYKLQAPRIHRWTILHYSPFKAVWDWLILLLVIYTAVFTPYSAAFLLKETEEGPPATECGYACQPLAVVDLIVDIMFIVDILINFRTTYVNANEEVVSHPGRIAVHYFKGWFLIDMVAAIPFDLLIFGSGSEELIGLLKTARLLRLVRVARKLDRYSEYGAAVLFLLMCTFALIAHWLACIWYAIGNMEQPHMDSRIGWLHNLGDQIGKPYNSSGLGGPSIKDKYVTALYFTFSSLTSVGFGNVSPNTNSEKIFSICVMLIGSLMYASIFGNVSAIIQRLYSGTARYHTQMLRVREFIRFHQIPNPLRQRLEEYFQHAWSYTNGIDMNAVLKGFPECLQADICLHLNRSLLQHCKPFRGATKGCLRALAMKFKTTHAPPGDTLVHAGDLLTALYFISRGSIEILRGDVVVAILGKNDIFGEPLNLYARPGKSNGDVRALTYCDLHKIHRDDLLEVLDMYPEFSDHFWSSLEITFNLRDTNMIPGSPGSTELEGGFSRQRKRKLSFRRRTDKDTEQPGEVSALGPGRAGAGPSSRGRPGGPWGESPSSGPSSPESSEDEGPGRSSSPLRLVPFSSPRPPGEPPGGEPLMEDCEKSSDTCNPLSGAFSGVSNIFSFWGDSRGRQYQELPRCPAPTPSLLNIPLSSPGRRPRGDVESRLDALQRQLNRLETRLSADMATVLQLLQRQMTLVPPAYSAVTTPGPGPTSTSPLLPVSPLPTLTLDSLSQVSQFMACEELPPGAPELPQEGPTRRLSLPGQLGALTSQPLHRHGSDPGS
Chain of VAP-1/SSAO (Q16853 whole entry): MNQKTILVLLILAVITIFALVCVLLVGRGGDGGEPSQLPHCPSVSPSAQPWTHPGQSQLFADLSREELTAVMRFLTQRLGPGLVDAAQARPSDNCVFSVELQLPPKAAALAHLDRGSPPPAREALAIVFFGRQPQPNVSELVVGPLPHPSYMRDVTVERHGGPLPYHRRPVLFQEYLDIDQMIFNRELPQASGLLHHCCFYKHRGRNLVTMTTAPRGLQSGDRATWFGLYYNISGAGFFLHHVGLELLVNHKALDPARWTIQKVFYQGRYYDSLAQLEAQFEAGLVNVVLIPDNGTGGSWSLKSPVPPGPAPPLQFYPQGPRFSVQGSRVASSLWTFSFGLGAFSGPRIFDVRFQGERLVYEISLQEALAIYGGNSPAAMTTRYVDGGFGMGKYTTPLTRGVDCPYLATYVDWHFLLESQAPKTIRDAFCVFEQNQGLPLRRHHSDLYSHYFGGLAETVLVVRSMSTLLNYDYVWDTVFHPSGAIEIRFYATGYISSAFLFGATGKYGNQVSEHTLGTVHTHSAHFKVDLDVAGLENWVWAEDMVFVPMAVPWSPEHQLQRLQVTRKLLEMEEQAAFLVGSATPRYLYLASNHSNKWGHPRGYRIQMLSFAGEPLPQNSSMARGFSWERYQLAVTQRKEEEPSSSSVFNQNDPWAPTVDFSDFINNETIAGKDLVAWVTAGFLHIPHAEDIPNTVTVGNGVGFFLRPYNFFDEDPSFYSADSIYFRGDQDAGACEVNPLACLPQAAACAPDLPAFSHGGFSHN

## Cl.Cn1nc(-c2ccc(OC/C(=C/F)CN)cc2)nc1C(F)F [WX126]
[1]
  IC50: 0.3 nM
[2]
  Effect on liver fibrosis (Sirius-Red staining): obvious improvement effect
  Effect on liver injury (HE staining score): obvious improvement effect
[3]; QPatch whole cell patch clamp, CHO-hERG, 0.24-30.00 μM
  IC50: > 30 µM
[3]; conclusion statement
  Inhibition of hERG potassium current (in words): weak inhibition
